What was measured:
ABI1 with AtPYL1 = target: T1, ABI1 with AtPYL1 (Arabidopsis thaliana, UniProt Q8VZS8); assay: PP2C inhibition assay, ABI1 with AtPYL1; format: biochemical; details: 1 µM phosphatase:2 µM receptor; read-out: IC50 of ABI1 with AtPYL1
T1 construct: His; made in house
Description: His-tagged receptors and phosphatases were purified using nickel–nitrilotriacetic acid (Ni-NTA) affinity chromatography. Protein integrity was analyzed by SDS–polyacrylamide gel electrophoresis, followed by InstantBlue staining. Phosphatase activity was measured using p-Nitrophenyl Phosphate (pNPP) (25 mM) as substrate, 10 mM MnCl2,1 μM PP2C, and 2 μM of the indicated receptors. Proteins were incubated with the ligands for 10 min at room temperature. pNPP was then added to start the reactions, and the absorbance at 405 nm was monitored for 20 min in a ViktorX5 plate reader. Assays were repeated twice. For dose-response experiments, IC50 values were obtained with GraphPad Prism 9 using a nonlinear regression curve fit. Each ligand concentration was tested in triplicate. Phosphatase activity of ABI1 was measured using RRA(phosphoT)VA peptide as a substrate, as described ([27]). […]
(D) Dose response analysis of iSB09 or ABA-dependent inhibition of ABI1 (blue and black lines, respectively) in presence of either AtPYL1 or AtPYR1. Values (average of duplicates) show PP2C activity after incubation with the indicated concentration of ligand and receptor at 1:2 ratio (1 µM phosphatase:2 µM receptor). […]
whereas with AtPYR1 was 200 nM and 213 nM, for ABA and iSB09, respectively. Ligands were assayed

CsPYL1^5m:ΔNHAB1 = CsPYL1^5m:ΔNHAB1 (Citrus sinensis, UniProt A0A067E666, F137I/T135L/T153I/V112L/V168A); assay: biochemical
CsPYL1^5m:ΔNHAB1, sequence (A0A067E666 1-209 V112L/T135L/F137I/T153I/V168A): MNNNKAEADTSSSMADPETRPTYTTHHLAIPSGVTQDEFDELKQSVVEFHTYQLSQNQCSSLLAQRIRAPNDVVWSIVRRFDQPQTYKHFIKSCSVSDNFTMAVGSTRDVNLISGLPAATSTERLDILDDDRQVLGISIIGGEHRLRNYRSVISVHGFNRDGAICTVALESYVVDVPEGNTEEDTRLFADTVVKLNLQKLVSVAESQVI
CsPYL1^5m:ΔNHAB1, sequence (Q9CAJ0 179-511 partner): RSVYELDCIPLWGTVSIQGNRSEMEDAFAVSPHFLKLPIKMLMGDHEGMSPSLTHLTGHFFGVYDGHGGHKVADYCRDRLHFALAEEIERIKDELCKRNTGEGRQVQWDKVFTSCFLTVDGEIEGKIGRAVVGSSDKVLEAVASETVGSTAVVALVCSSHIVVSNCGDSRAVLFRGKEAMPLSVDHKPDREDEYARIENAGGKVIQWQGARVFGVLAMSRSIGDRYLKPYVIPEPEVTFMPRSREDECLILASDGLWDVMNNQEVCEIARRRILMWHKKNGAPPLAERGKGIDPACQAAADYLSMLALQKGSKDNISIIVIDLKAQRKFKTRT
Description: To obtain the Kd values, the data were analyzed using nonlinear least-squares regression using a model considering a single set of binding sites implemented in Origin 7.0 (OriginLab).

[1] = tested on: Arabidopsis thaliana seedlings (WT Col-0, overexpressing lines, receptor mutants); assay: Seedling establishment assay; format: in vivo
Description: Seedling establishment was scored as the percentage of seeds that developed green expanded cotyledons and the first pair of true leaves at 5 or 7 days. Seedling establishment assays in the presence of ABA receptor agonists were performed in 24-well plates, where approximately 25 to 35 seeds per well were sown. Each well contained a different treatment. The experiment was repeated at least twice.

[2] = tested on: Arabidopsis thaliana seedlings; assay: Root growth assay; format: in vivo; details: 10 μM
Description: Seedlings were grown on vertically oriented Murashige and Skoog (MS) plates for 4 to 5 days. Afterward, seedlings were transferred to MS supplemented with the indicated concentrations of the different ligands and kept on vertical orientation. Ten days later, the plates were scanned on a flatbed scanner to produce image files suitable for quantitative analysis of root growth using the NIH Image software ImageJ. The experiment was performed in triplicate (n = 13 to 16). Statistical comparisons were performed by either pairwise t tests or one-way ANOVA using GraphPad Prism 9.

[3] = tested on: Arabidopsis thaliana plants; assay: IR thermography of leaf temperature, arabidopsis; format: in vivo; details: transgenic CsPYL1^5m lines and Col-0, 50 μM, 24 hours after spraying
Description: A. thaliana plants were grown in a controlled environment growth chamber at 21°/19°C under 8-hour light/16-hour dark photoperiod at 100 μE m^−2 s^−1. IR thermography images of rosette leaves were acquired with a thermal camera FLIR E95 equipped with a 42° lens, 24 hours after spraying 6-week-old plants with 10 mM MES (pH 5.7) + 0.02% Silwet L-77 plus 50 μM ligand or 0.1% DMSO as a control. Images were processed and quantified with the FLIR tools software. The average temperature of 15 different sections taken from four to six leaves per plant was used for quantification. At least six plants per genotype were analyzed, and the experiments were repeated twice. Statistical analysis was performed using GraphPad Prism 9. T test or ANOVA analysis was carried out to identify statistical significance among datasets.

[4] = tested on: MAPKKK18 promoter-LUC reporter; assay: pMAPKKK18-LUC luciferase reporter assay; format: in vivo, Arabidopsis thaliana; details: 100 μM, 6 hours
Description: […]18-LUC seedlings were grown in 24-well plates (25 to 35 seeds per well) filled with 1 ml of liquid MS medium for 7 days. MS medium was replaced with fresh medium supplemented with 100 μM D-luciferin, potassium salt (GoldBio), and the indicated treatments with iSB07, iSB09, or ABA. Seedlings were incubated for 6 hours, and luminescence was recorded with a LAS-3000 imager (Fujifilm) equipped with a charge-coupled device camera using 2-min exposures. Eight-bit images were transformed in rainbow false color and quantified using Fiji. The experiment was repeated at least twice.

ABA-responsive markers = assay: RNA sequencing of ABA-responsive markers; format: in vivo, Arabidopsis thaliana; details: 5 μM iSB09, 3 hours
Description: Total RNA was extracted as indicated above. The quality of the samples was verified using Agilent 2100 Bioanalyzer. First-strand cDNA was prepared by an EasyScript One-Step gDNA Removal and cDNA Synthesis SuperMix (TransGen Biotech) with random hexamers. Sequencing of cDNA libraries was performed using the DNB-Seq technology at the Beijing Genomics Institute, producing at least 20 million clean reads per sample of paired-end 100-base pair read lengths. RNA-seq data analysis was carried out by the Bioinformatics core facility at Instituto de Biología Molecular y Celular de […]. After quality analysis of raw reads with FastQC (www.bioinformatics.babraham.ac.uk/projects/fastqc/), and quality trimming and adapter removal of raw reads with cutadapt (http://journal.embnet.org/index.php/embnetjournal/article/view/200), clean read pairs longer than 20 nucleotides were mapped to TAIR10 arabidopsis Col-0 reference genome using HISAT2 with default parameters, and nonuniquely mapped pairs were discarded with SAMtools. The number of read counts that uniquely mapped to each arabidopsis gene (Araport11 annotation) was obtained with HTSeq-count. Genes lacking at least 1 TPM ([…]) in the three replicates of at least one of the two conditions were filtered out, and differential expression analysis of the remaining genes was done with DESeq2. […]

T1 sequence (Q8VZS8 whole entry): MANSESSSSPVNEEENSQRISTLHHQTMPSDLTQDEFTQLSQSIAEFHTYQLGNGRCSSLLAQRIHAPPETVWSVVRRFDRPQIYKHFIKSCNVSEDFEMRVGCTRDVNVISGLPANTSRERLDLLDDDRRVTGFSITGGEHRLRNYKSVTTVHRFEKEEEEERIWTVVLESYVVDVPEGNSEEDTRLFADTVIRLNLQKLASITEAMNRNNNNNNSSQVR
T1 sequence (P49597 whole entry partner): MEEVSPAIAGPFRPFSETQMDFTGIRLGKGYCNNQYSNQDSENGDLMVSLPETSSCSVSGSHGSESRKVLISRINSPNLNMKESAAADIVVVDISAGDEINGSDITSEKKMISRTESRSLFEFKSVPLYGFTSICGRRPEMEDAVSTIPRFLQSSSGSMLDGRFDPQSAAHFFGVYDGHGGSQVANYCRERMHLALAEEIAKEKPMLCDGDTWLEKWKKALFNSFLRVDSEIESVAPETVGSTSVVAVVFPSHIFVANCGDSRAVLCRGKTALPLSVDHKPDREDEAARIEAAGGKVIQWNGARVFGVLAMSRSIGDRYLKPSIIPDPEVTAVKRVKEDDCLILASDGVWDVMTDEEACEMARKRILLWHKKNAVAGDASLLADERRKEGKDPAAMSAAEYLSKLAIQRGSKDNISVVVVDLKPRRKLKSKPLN

## CCn1c(=O)cc(C)c2cc(CNS(=O)(=O)c3ccccc3)ccc21 [iSB09]
ABI1 with AtPYL1
  IC50: 226 nM
CsPYL1^5m:ΔNHAB1
  Kd: 560 nM
[1]; WT Col-0
  dosage able to inhibit seedling establishment: 5 µM
[1]; mutants lacking functional PYR1 and PYL1, 10 μM iSB09
  agonist-induced inhibition of seedling establishment: insensitive
[1]; plants that express CsPYL1^5m
  dosage able to inhibit seedling establishment: 0.5 µM
[2]; CsPYL1^5m lines
  inhibition of root growth: marked inhibition
[2]; WT plants
  inhibition of root growth: did not significantly inhibit
[3]
  leaf temperature by thermal imaging: increased leaf temperature
[4]
  induction of LUC relative to 25 μM ABA: approximately twofold higher
ABA-responsive markers
  increase of regulation of ABA-responsive markers in CsPYL1^5m background relative to WT: 8- to 10 fold

— article PMC10005185, “Structure-guided engineering of a receptor-agonist pair for inducible activation of the ABA adaptive response to drought” (Science Advances, 2023)
